{
  "source": "patent US20230141988A1",
  "about": "“PHARMACEUTICAL COMPOSITION FOR USE IN THE TREATMENT OF NEUROLOGICAL DISEASES” (Aclipse One Inc., priority 2020, published 2023)",
  "key": {"[1]": {"conditions": "plasma, fed male Cynomolgus Monkeys, PO 10 mg/kg, animal 168777C", "procedure": "Three male Cynomolgus Monkeys were administrated a single oral dose at 10 mg/kg. The oral vehicle was 10% (w/v) HP-β-CD in water.\nMale Cynomolgus Monkeys were purchased from Topgene Biotechnology. The animals were 2-5 years old with body weights of 2.0-5.0 kg on the dosing date. The animals were housed in a 12-hour light/12-hour dark cycle environment and had free access to food and water.\nAll animals for PO administration were fasted overnight prior to dosing and will be fed approximately 2 hours after dosing.\nThree male Cynomolgus Monkeys were assigned to this study. […] The dosing regimens and formulation (vehicle) compositions are described in the following table below:\nAnimals were weighed prior to dose administration on the day of dosing for calculating the actual dose volume. The dosages were prepared as illustrated in the table below:\nBlood samples were taken at the following times:\nWhole blood samples were gently inverted several times to ensure anticoagulation then placed on wet ice prior to centrifugation. Within 30 minutes of collection, the samples were centrifuged at approximately 4,000×g (force) for 5 minutes at 2 to 8° C. to obtain plasma. The stabilizing agent, ascorbic acid at 200 mg/mL, was added in a proportion of 10% in plasma. The plasma samples were stored in a freezer at −75±15° C. prior to analysis. The completion time from collection was less than 60 min. The resultant plasma samples will be immediately separated divided into 2 aliquots (˜75 μL each) and transferred to cryogenic vial. Samples will be maintained on wet ice throughout processing, and stored in a freezer at −75±15° C. prior to analysis. Samples should be protected from ambient light (under sodium lamp).\nCalibration standard working solutions were prepared at concentrations of 2, 5, 10, 20, 100, 500, 1000, 5000, 10000 ng/mL by serial dilution of the standard stock solution in 1:1 acetonitrile:water. Quality control working solutions at concentrations of 5, 10, 20, 500 and 8000 ng/mL were prepared by serial dilution of the standard stock solution in 1:1 acetonitrile:water. The QC samples were prepared on the day of analysis in the same way as calibration standards.\nSamples were prepared with 5 μL of each calibration standard working solution (2, 5, 10, 20, 100, 500, 1000, 5000, 10000 ng/mL) added to 50 μL of the blank Cynomolgus Monkeys plasma to achieve calibration standards concentrations of 0.2, 0.5, 1, 2, 10, 50, 100, 500, 1000 ng/mL (relative to a 50-4, plasma aliquot). Quality Control (QC) samples at 0.5 ng/mL (low-1), 1 ng/mL (low-2), 2 ng/mL (low-3), 50 ng/mL (mid) and 800 ng/mL (high) for plasma were prepared independently for those used for the calibration curves.\nTotal volumes of 55 μL of standards, 55 μL of QC samples and 55 μL of unknown samples (50 μL of plasma with 5 μL of 1:1 acetonitrile:water) were added to 200 μL of acetonitrile containing IS to precipitate proteins. Then the samples were vortexed for 30 sec. […] All of the samples were processed on ice.\nThe LC-MS/MS system consisted of two Shimadzu LC-30AD pumps, a DGU-20A5R degasser, a Rack changer II and an AB Sciex Triple Quad 5500 LC/MS/MS mass spectrometer. Chromatographic separation was performed on Agilent ZORBAX XDB-Phenyl 5 μm (50×2.1 mm) at room temperature. The mobile phase was composed of A: 5% Acetonitrile/95% water (0.1% Formic acid); B: 95% Acetonitrile/5% water (0.1% Formic acid). The flow rate was 0.6 mL/min. The injection volume was 2 μL.\nA multiple reaction monitoring (MRM) method was selected for quantitative analysis. […] The instrument parameters were set as follows: ion spray voltage: 5500 V; curtain gas: 40 psi; ion source gas 1: 50 psi; ion source gas 2: 50 psi; temperature: 450° C. The compound dependent parameters are listed as follows:\nHPLC flow rate was set at 0.6 mL/min with the following conditions:"}, "in vivo": {"assay": "in vivo", "conditions": "male, SD, rat; for AUC(0-inf): AUCInf; for AUC(0-t): AUClast; for MRT inf: MRTInf", "procedure": "The vehicle for the IV, subcutaneous, PO and IN formulation contained “0.1% sodium metabisulfite solution”.\nMale SD rats were purchased from Si Bei Fu Laboratory Animal Technology Co. Ltd (Beijing, China). The animals were about 8 weeks old with body weights of 200-300 g on the dosing date. The animals were housed in a 12-hour light/12-hour dark cycle environment and had free access to food and water. All animals were fasted overnight and fed after 4 hours collection.\nPlasma samples were collected from jugular vein at each time point after IV, subcutaneous, PO and IN administrations.\nAbout 200 μL of blood samples were collected from each animal via jugular vein. These blood samples were placed into the tubes containing K2EDTA. And centrifugation at 3000 g for 10 minutes in a 4° C. centrifuge. The completion time from collection was less than 30 min. The stabilizing agent of ascorbic acid at 200 mg/mL was added in a proportion of 10% in plasma. The plasma samples were stored in a freezer at −75±15° C. prior to analysis. The completion time from collection was less than 60 min.\nCalibration standard working solutions were prepared at concentrations of 2, 5, 10, 20, 50, 100, 500, 1000, 5000 and 10000 ng/mL by serial dilution of the standard stock solution in 50% acetonitrile in water. Quality control working solutions at concentrations of 5, 10, 20, 500 and 8000 ng/mL were prepared by serial dilution of the standard stock solution in 50% acetonitrile in water. These QC samples were prepared on the day of analysis in the same way as calibration standards.\nFor plasma samples, 2 μL of each calibration standard working solution (2, 5, 10, 20, 50, 100, 500, 1000, 5000 and 10000 ng/mL) was added to 20 μL of the blank SD rat plasma (with 10% 200 mg/mL ascorbic acid) to achieve calibration standards of 0.2-1000 ng/mL (0.2, 0.5, 1, 2, 5, 10, 50, 100, 500, 1000 ng/mL) in a total volume of 22 μL. Quality Control (QC) samples at 0.5 ng/mL (low-1), 1 ng/mL (low-2) and 2 ng/mL (low-3), 50 ng/mL (mid), 800 ng/mL (high) for plasma were prepared independently for those used for the calibration curves. These QC samples were prepared on the day of analysis in the same way as calibration standards. The total volumes of 22 μL of standards, 22 μL of QC samples and 22 μL of unknown samples (20 μL of unknown plasma (with 10% 200 mg/mL ascorbic acid) with 2 μL 50% acetonitrile) were added to 200 μL of acetonitrile containing IS to precipitate proteins. Then the samples were vortexed for 30 sec. After centrifugation at 4° C., 4700 rpm for 30 min, and supernatant was diluted 2 times with water, 10 μL of the diluted supernatant was injected into the LC-MS/MS system for quantitative analysis.\nAll the samples were processed on ice.\nThe LC-MS/MS system consisted of two Shimadzu LC-30AD pumps, a DGU-20A5R degasser, a Rack changer II and LCMS-8060 LC/MS/MS instrument mass spectrometer.\nOD-3R Particle size 3 μm 4.6 mm×150 mm column at room temperature. The mobile phase was composed of A: Water (5 mM Ammonium Acetate); B: Ethanol (5 mM Ammonium Acetate). The flow rate was 0.5 mL/min. The injection volume was 10 μL.\nA multiple reaction monitoring (MRM) method was selected for quantitative analysis. […] The instrument parameters were set as follows: ion spray voltage: 8060; heating gas flow: 10 L/min; interface temperature: 250° C.; DL temperature: 220° C.; heat block temperature: 400° C.; drying gas flow: 10 L/min.\nData acquisition was performed by Lab Solutions version 5.89 Software (Shimadzu). All concentration data was reported with 3 significant figures. Data statistics were performed using Excel 2010 software.\nThe linear trapezoidal algorithm was used for AUC calculation."}, "[2]": {"assay": "Solubility in aqueous media / aqueous buffer solutions", "type": "physicochemical", "conditions": "free base, aqueous media at various pH values"}, "[3]": {"conditions": "0.88 mg/kg, plasma concentration"}, "[4]": {"conditions": "iv, 0.88 mg/kg, plasma concentration"}, "[5]": {"conditions": "iv, 0.88 mg/kg, plasma concentration, Mean"}},
  "note": "“And” between values parts separate entries of the source, which are not always exact repeats. Identical values can stand only once.",
  "data": [
    {"smiles": "CN1CCc2cccc3c2[C@@H]1Cc1ccc(O)c(O)c1-3", "values": [
      {"measurement": "AUClast/D", "setting": "[1]", "value": 4.26, "unit": "mg·h/mL"},
      {"measurement": "concentration at 0.5 h", "setting": "in vivo", "value": 31, "unit": "ng/mL"},
      {"measurement": "concentration at 1 h", "setting": "in vivo", "value": 8.96, "unit": "ng/mL"},
      {"measurement": "concentration at 2 h", "setting": "in vivo", "value": 6.87, "unit": "ng/mL"},
      {"measurement": "concentration at 8 h", "setting": "in vivo", "value": 0.651, "unit": "ng/mL"},
      {"measurement": "concentration at […]", "setting": "in vivo", "value": 114, "unit": "ng/mL"},
      {"measurement": "concentration at […]", "setting": "in vivo; 0.88 mg/kg", "value": 119, "unit": "ng/mL"},
      {"measurement": "concentration at 2 min", "setting": "in vivo; [3]", "value": 42.7, "unit": "ng/mL"},
      {"measurement": "concentration at 0.5 h", "setting": "in vivo; [3]", "value": 40.5, "unit": "ng/mL"},
      {"measurement": "concentration at 1 h", "setting": "in vivo; [3]", "value": 5.76, "unit": "ng/mL"},
      {"measurement": "concentration at 2 h", "setting": "in vivo; [3]", "value": 1.52, "unit": "ng/mL"},
      {"measurement": "concentration at 8 h", "setting": "in vivo; [3]", "value": 0.877, "unit": "ng/mL"},
      {"measurement": "concentration at […]", "setting": "in vivo; [3]", "value": "162 ng/mL and 151 ng/mL and 107 ng/mL"},
      {"measurement": "AUC(0-inf)", "setting": "in vivo; iv, 0.88 mg/kg", "value": 86.6, "unit": "ng·h/mL"},
      {"measurement": "AUC(0-t)", "setting": "in vivo; iv, 0.88 mg/kg", "value": 83.2, "unit": "ng·h/mL"},
      {"measurement": "C0", "setting": "in vivo; iv, 0.88 mg/kg, C0", "value": 527, "unit": "ng/mL"},
      {"measurement": "clearance", "setting": "in vivo; iv, 0.88 mg/kg, Cl", "value": 169, "unit": "mL/min/kg"},
      {"measurement": "MRT inf", "setting": "in vivo; iv, 0.88 mg/kg", "value": 1.26, "unit": "h"},
      {"measurement": "Vd", "setting": "in vivo; iv, 0.88 mg/kg, Vss", "value": 12.8, "unit": "L/kg"},
      {"measurement": "concentration at 2 min", "setting": "in vivo; [4]", "value": 353, "unit": "ng/mL"},
      {"measurement": "concentration at 0.5 h", "setting": "in vivo; [4]", "value": 17.8, "unit": "ng/mL"},
      {"measurement": "concentration at 1 h", "setting": "in vivo; [4]", "value": 7.6, "unit": "ng/mL"},
      {"measurement": "concentration at 2 h", "setting": "in vivo; [4]", "value": 4.32, "unit": "ng/mL"},
      {"measurement": "concentration at 8 h", "setting": "in vivo; [4]", "value": 0.88, "unit": "ng/mL"},
      {"measurement": "concentration at […]", "setting": "in vivo; [4]", "value": 104, "unit": "ng/mL"},
      {"measurement": "concentration at 2 min", "setting": "in vivo; [5]", "value": 339, "unit": "ng/mL"},
      {"measurement": "concentration at 0.5 h", "setting": "in vivo; [5]", "value": 16.4, "unit": "ng/mL"},
      {"measurement": "concentration at 1 h", "setting": "in vivo; [5]", "value": 6.37, "unit": "ng/mL"},
      {"measurement": "concentration at 2 h", "setting": "in vivo; [5]", "value": 3.67, "unit": "ng/mL"},
      {"measurement": "concentration at 8 h", "setting": "in vivo; [5]", "value": 0.777, "unit": "ng/mL"},
      {"measurement": "AUC(0-inf)", "setting": "in vivo; sc, 0.88 mg/kg", "value": 71.2, "unit": "ng·h/mL"},
      {"measurement": "AUC(0-t)", "setting": "in vivo; sc, 0.88 mg/kg", "value": 70.2, "unit": "ng·h/mL"},
      {"measurement": "Cmax", "setting": "in vivo; sc, 0.88 mg/kg, Cmax", "value": 141, "unit": "ng/mL"},
      {"measurement": "MRT inf", "setting": "in vivo; sc, 0.88 mg/kg", "value": 0.873, "unit": "h"},
      {"measurement": "solubility", "setting": "[2]", "value": "low solubilities"}
    ]}
  ]
}
